Assay results published in publication PMC3123436 (Bioorganic & medicinal chemistry, 2011).
Values after ≈ are worked out from the molar mass of the structure shown. Read-outs that look alike come from different tables or passages of the source.

Assays:
M. tuberculosis CDC1551 = test: 96 well plate growth inhibition; details: visual, 8–10 d
[1] = tested on: M. tuberculosis Erdman (control strain); test: 96 well plate growth inhibition
[2] = tested on: MSH biosynthesis in M. tuberculosis Erdman; test: MSH and GlcN-Ins levels in M. tuberculosis Erdman cultured 7 d with 2; details: 20–75 μM 2, 7 d culture, two independent experiments
M. tuberculosis Erdman = test: Inhibition of exponentially growing M. tuberculosis Erdman, 7 d flask culture
[3] = molecular target: recombinant M. tuberculosis MshC (Mycobacterium tuberculosis, UniProt P9WJM9); type: biochemical
Chain of recombinant M. tuberculosis MshC (P9WJM9 whole entry, looked up): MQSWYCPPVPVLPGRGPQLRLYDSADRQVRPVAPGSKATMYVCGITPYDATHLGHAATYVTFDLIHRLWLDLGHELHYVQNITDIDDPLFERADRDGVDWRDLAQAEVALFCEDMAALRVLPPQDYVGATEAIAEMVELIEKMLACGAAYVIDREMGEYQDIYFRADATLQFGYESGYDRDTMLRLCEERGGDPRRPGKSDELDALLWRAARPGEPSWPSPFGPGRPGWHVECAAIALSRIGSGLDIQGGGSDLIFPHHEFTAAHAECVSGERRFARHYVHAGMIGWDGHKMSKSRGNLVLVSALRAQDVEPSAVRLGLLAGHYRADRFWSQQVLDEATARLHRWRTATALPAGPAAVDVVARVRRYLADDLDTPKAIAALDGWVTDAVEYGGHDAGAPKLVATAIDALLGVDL

Vero-E6 cells = details: African green monkey, 2 d

Structure (SMILES): CN(CCCNC(=O)c1ccc2c(c1)N(Cc1cccc(Cl)c1)C(=O)c1ccccc1[S+]2[O-])C1CCCCC1 (stereo not shown) [Compound 2, N-[3-(cyclohexylmethylamino)propyl]-10-[(3-chlorophenyl)methyl]-10,11-dihydro-11-oxo-dibenzo-[b,f][1,4]-thiazepine-8-carboxamide-5-oxide]
- MIC95 (95% inhibition) (M. tuberculosis CDC1551): 110 µM (≈ 62.1 µg/mL)
- MIC95 (95% inhibition) [1]: 28 to 55 µM
- increase in the level of GlcN-Ins [2]: 9 fold
- concentration at which inhibition of growth was apparent (M. tuberculosis Erdman): 20 µM
- viable cells relative to day 0 inoculum (M. tuberculosis Erdman; 50 or 75 μM, plating): one-third

Structure (SMILES): CN(CCCNC(=O)c1ccc2c(c1)N(Cc1cccc(Cl)c1)C(=O)c1ccccc1S2)C1CCCCC1 [Compound 5, 10-(3-Chlorobenzyl)-N-(3-(cyclohexyl(methyl)amino)-propyl)-11-oxo-10,11 dihydrodibenzo[b,f][1,4]thiazepine-8-carboxamide]
- MshC inhibition, in words ([3]; SAR discussion): less active than their corresponding sulfoxides

Structure (SMILES): O=C(NCCCSC1CCCCC1)c1ccc2c(c1)N(Cc1cccc(Cl)c1)C(=O)c1ccccc1[S+]2[O-] (stereo not shown) [Compound 6]
- MshC inhibition, in words ([3]; SAR discussion): complete loss of measurable activity

Structure (SMILES): CCCCSCCCNC(=O)c1ccc2c(c1)N(Cc1cccc(Cl)c1)C(=O)c1ccccc1[S+]2[O-] (stereo not shown) [Compound 8]
- MshC inhibition, in words [3]: complete loss of measurable activity

Structure (SMILES): CC1CC(C)CN(CCCNC(=O)c2ccc3c(c2)N(Cc2cccc(Cl)c2)C(=O)c2ccccc2[S+]3[O-])C1 (stereo not shown) [Compound 10]
- MshC inhibition, in words [3]: less effective

Structure (SMILES): CCC1CCCCN1CCCNC(=O)c1ccc2c(c1)N(Cc1cccc(Cl)c1)C(=O)c1ccccc1[S+]2[O-] (stereo not shown) [Compound 12]
- Vero Cell toxicity (MIC90) (Vero-E6 cells): 100 µM

Structure (SMILES): O=C(NCCCN1CCOCC1)c1ccc2c(c1)N(Cc1cccc(Cl)c1)C(=O)c1ccccc1[S+]2[O-] (stereo not shown) [Compound 14]
- MshC inhibition, in words [3]: similarly ineffective

Structure (SMILES): O=C(NCCCN1CCOCC1)c1ccc2c(c1)N(Cc1cccc(Cl)c1)C(=O)c1ccccc1S2 [Compound 15]
- MshC inhibition, in words ([3]; SAR discussion): less active than their corresponding sulfoxides

Structure (SMILES): O=C(NCCCN1CCCC1)c1ccc2c(c1)N(Cc1cccc(Cl)c1)C(=O)c1ccccc1[S+]2[O-] (stereo not shown) [Compound 17]
- MIC95 (95% inhibition) (M. tuberculosis CDC1551): 220 µM (≈ 115 µg/mL)

Structure (SMILES): O=C(NCCCN1CCCC1)c1ccc2c(c1)N(Cc1cccc(Cl)c1)C(=O)c1ccccc1S2 [Compound 18]
- MshC inhibition, in words ([3]; SAR discussion): less active than their corresponding sulfoxides
- MIC95 (95% inhibition) (M. tuberculosis CDC1551): 110 µM (≈ 55.7 µg/mL)

Structure (SMILES): CC1CCCN(CCCNC(=O)c2ccc3c(c2)N(Cc2cccc(Cl)c2)C(=O)c2ccccc2[S+]3[O-])C1 (stereo not shown) [Compound 19]
- Vero Cell toxicity (MIC90) (Vero-E6 cells): 100 µM

Structure (SMILES): O=C(NCCN1CCCCCC1)c1ccc2c(c1)N(Cc1cccc(Cl)c1)C(=O)c1ccccc1[S+]2[O-] (stereo not shown) [Compound 20]
- Vero Cell toxicity (MIC90) (Vero-E6 cells): 100 µM
- MIC95 (95% inhibition) (M. tuberculosis CDC1551): 110 µM (≈ 59 µg/mL)

Structure (SMILES): CC1CCCN(CCCNC(=O)c2ccc3c(c2)N(Cc2ccc(F)cc2)C(=O)c2ccccc2[S+]3[O-])C1 (stereo not shown) [Compound 35]
- fold less active than 3-chlorobenzyl derivative 19 [3]: 5 fold

Structure (SMILES): CCCN(CCC)CCCNC(=O)c1ccc2c(c1)N(Cc1ccc(F)cc1)C(=O)c1ccccc1[S+]2[O-] (stereo not shown) [Compound 36]
- fold loss in activity compared with 21 [3]: 30 fold

Structure (SMILES): CN(CCCNC(=O)c1ccc2c(c1)N(Cc1ccc(F)cc1)C(=O)c1ccccc1[S+]2[O-])C1CCCCC1 (stereo not shown) [Compound 37]
- fold increase of IC50 / loss in activity compared to 2 [3]: > 35 fold

Structure (SMILES): Cc1ccc(CN2C(=O)c3ccccc3[S+]([O-])c3ccc(C(=O)NCCCN(C)C4CCCCC4)cc32)c(C)c1 (stereo not shown) [Compound 40]
- MshC inhibition, in words ([3]; SAR discussion): just detectable inhibition

Structure (SMILES): CCN(CC)CCCNC(=O)c1ccc2c(c1)N(Cc1ccc(C)cc1C)C(=O)c1ccccc1[S+]2[O-] (stereo not shown) [Compound 41]
- MshC inhibition, in words ([3]; SAR discussion): no measurable inhibition

Structure (SMILES): Cc1ccc(CN2C(=O)c3ccccc3S(=O)(=O)c3ccc(C(=O)NCCCN4CCCC4)cc32)c(C)c1 [Compound 42]
- MshC inhibition, in words ([3]; SAR discussion): just detectable inhibition

Structure (SMILES): Cc1ccc(CN2C(=O)c3ccccc3S(=O)(=O)c3ccc(C(=O)NCCCN4CCOCC4)cc32)c(C)c1 [Compound 43]
- MshC inhibition, in words ([3]; SAR discussion): no measurable inhibition
